Measured values reported in patent US8394986B2, “Phenoxiacetic acid derivatives” (AstraZeneca AB, priority 2003, dated 2013).
Where a name gives a salt, the structure may show the parent alone.

These compounds were tested against T1, rhCRTh2 (Homo sapiens, UniProt Q9Y5Y4) (assay: Ligand binding assay ([3H]PGD2 SPA, HEK cell membranes)). Conditions: [3H]PGD2 displacement, membranes of HEK cells expressing rhCRTh2/Ga16, SPA beads, 2 hours room temperature.
T1 construct: expressed in transfected cells; membranes prepared
T1 sequence (Q9Y5Y4 1-395): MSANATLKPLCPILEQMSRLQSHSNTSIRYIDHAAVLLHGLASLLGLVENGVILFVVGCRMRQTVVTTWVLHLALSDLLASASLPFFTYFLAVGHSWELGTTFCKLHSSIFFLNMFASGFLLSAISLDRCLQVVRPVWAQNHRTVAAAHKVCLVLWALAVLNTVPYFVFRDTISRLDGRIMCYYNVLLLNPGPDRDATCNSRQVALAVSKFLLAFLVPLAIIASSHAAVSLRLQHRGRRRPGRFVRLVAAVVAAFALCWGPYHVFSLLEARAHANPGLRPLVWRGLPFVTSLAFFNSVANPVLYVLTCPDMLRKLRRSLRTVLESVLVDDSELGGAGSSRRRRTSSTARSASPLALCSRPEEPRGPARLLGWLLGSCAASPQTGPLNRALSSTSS
Description: [^3H]PGD2 was purchased from Perkin Elmer Life Sciences with a specific activity of 100-210 Ci/mmol All other chemicals were of analytical grade.
HEK cells expressing rhCRTh2/Ga16 were routinely maintained in DMEM containing 10% Foetal Bovine Serum (HyClone), 1 mg/ml geneticin, 2 mM L-glutamine and 1% non-essential amino acids. For the preparation of membranes, the adherent transfected HEKcells were grown to confluence in two layer tissue culture factories (Fisher, catalogue number TKT-170-070E). Maximal levels of receptor expression were induced by addition of […] sodium butyrate for the last 18 hours of culture. The adherent cells were washed once with phosphate buffered saline (PBS, 50 ml per cell factory) and detached by the addition of 50 ml per cell factory of ice-cold membrane homogenisation buffer [20 mM HEPES (pH 7.4), 0.1 mM dithiothreitol, 1 mM EDTA, 0.1 mM phenyl methyl sulphonyl fluoride and 100 μg/ml bacitracin]. […] The final pellet was re-suspended in 4 ml of membrane homogenisation buffer per cell factory used and the protein content determined Membranes were stored at −80° C. in suitable aliquots.
All assays were performed in Corning clear bottomed, white 96-well NBS plates (Fisher). […] (The optimum coating concentrations were determined for each batch of membranes) The beads were pelleted by centrifugation (800×g for 7 minutes at 4° C.), washed once with assay buffer (50 mM HEPES pH 7.4 containing 5 mM magnesium chloride) and finally re-suspended in assay buffer at a bead concentration of 10 mg/ml.
Each assay contained 20 μl of 6.25 nM [^3H]PGD2, 20 μl membrane saturated SPA beads both in assay buffer and 10 μl of compound solution or 13,14-dihydro-15-keto prostaglandin D2 (DK-PGD2, for determination of non-specific binding, Cayman chemical company). […] The assay plate was incubated at room temperature for 2 hours and counted on a Wallac Microbeta liquid scintillation counter (1 minute per well).

Row | Structure (SMILES) | IC50
1 | CCS(=O)(=O)c1ccc(Oc2cc(Cl)ccc2OCC(=O)O)cc1 [Example 5, [4-Chloro-2-[4-(ethylsulfonyl)phenoxy]phenoxy]acetic acid, sodium salt] | 0.01 µM
2 | CCS(=O)(=O)c1ccc(Cc2cc(C(F)(F)F)ccc2OCC(=O)O)cc1 [Example 4, [2-[4-(Ethylsulfonyl)benzyl]-4-(trifluoromethyl)phenoxy]acetic acid] | 0.01 µM
3 | CCS(=O)(=O)c1ccc(Oc2cc(F)ccc2OCC(=O)O)c(Cl)c1 [Example 43, {2-[2-Chloro-4-(ethylsulfonyl)phenoxy]-4-fluorophenoxy}acetic acid] | 0.001 µM
